# Data from patent publication US8993604B2, “Treatment and prevention of dengue virus infections” (Siga Technologies, Inc., priority 2009, dated 2015).
# Like-named read-outs stand apart in the source and are kept apart here.
# Tested on: Dengue-2 (Strain New Guinea C)
# Assay: Viral yield assay in Vero cells
# Assay type: cell-based
# Conditions: Dengue virus, read-out: Activity (anti-dengue 2 viral activity, EC50 class)
# Protocol: Compounds that were active in the primary screen were tested for activity in viral yield assays. […] Vero cells in 12-well plates were infected with dengue-2 virus at a multiplicity of infection (MOI) of 0.1, treated with compound (or DMSO as a control), incubated at 37° C., harvested 48 hours post infection and titered on Vero cells as described above. The EC50 was calculated through ExcelFit. Activities against other serotypes of dengue virus were determined in a similar way.
# [1] = Vero cells, MOI 0.1, harvested 48 hours post infection
Structure (SMILES),EC50 [1] [µM],"EC50 (Vero, 48 h) [µM]"
"O=C(Nc1ccc(O)c(-c2nc3ccccc3s2)c1)c1ccc2c(c1)OCCO2 [Compound 72, 2,3-Dihydro-benzo[1,4]dioxine-6-carboxylic acid (3-benzothiazol-2-yl-4-hydroxy-phenyl)-amide]",> 25,–
"Cc1ccccc1C(=O)Nc1cc(-c2nc3ccccc3s2)ccc1Cl [Compound 71, N-(5-Benzothiazol-2-yl-2-chloro-phenyl)-2-methyl-benzamide]",> 25,–
"Cc1cc(C(=O)Nc2ccc(-c3nc4ccccc4s3)c(Cl)c2)ccc1[N+](=O)[O-] [Compound 119, N-(4-Benzothiazol-2-yl-3-chloro-phenyl)-3-methyl-4-nitro-benzamide]",> 25,–
"COc1ccc(C(=O)Nc2ccccc2-c2nc3ccccc3s2)cc1[N+](=O)[O-] [Compound 113, N-(2-Benzothiazol-2-yl-phenyl)-4-methoxy-3-nitro-benzamide]",> 25,–
"COc1c(C)cccc1C(=O)Nc1ccccc1-c1nc2ccccc2s1 [Compound 16, N-(2-Benzothiazol-2-yl-phenyl)-2-methoxy-3-methyl-benzamide]",1 to 10,–
"COc1cccc(OC)c1C(=O)Nc1ccc(-c2nc3ccccc3s2)cc1 [Compound 95, N-(4-Benzothiazol-2-yl-phenyl)-2,6-dimethoxy-benzamide]",> 25,–
"O=C(Nc1ccc(-c2nc3ccccc3s2)cc1)c1cc(I)ccc1I [Compound 44, N-(4-Benzothiazol-2-yl-phenyl)-2,5-diiodo-benzamide]",> 25,–
"Cc1cc(C)cc(C(=O)Nc2cc(-c3nc4ccccc4s3)ccc2Cl)c1 [Compound 122, N-(5-Benzothiazol-2-yl-2-chloro-phenyl)-3,5-dimethyl-benzamide]",> 25,–
"O=C(Nc1ccccc1-c1nc2ccccc2s1)c1ccc([N+](=O)[O-])cc1Cl [Compound 98, N-(2-Benzothiazol-2-yl-phenyl)-2-chloro-4-nitro-benzamide]",> 25,–
"O=C(Nc1ccc(O)c(-c2nc3ccccc3s2)c1)c1ccc(F)cc1 [Compound 61, N-(3-Benzothiazol-2-yl-4-hydroxy-phenyl)-4-fluoro-benzamide]",> 25,–
"Cc1ccccc1C(=O)Nc1ccc(-c2nc3ccccc3s2)cc1 [Compound 26, N-(4-Benzothiazol-2-yl-phenyl)-2-methyl-benzamide]",10 to 25,–
"Cc1ccc(-c2nc3ccccc3s2)cc1NC(=O)c1ccc(F)cc1 [Compound 50, N-(5-Benzothiazol-2-yl-2-methyl-phenyl)-4-fluoro-benzamide]",> 25,–
"Cc1ccc(-c2nc3ccccc3s2)cc1NC(=O)c1ccc2c(c1)OCO2 [Compound 121, Benzo[1,3]dioxole-5-carboxylic acid (5-benzothiazol-2-yl-2-methyl-phenyl)-amide]",–,> 25
"O=C(Nc1ccc(O)c(-c2nc3ccccc3s2)c1)c1ccccc1 [Compound 56, N-(3-Benzothiazol-2-yl-4-hydroxy-phenyl)-benzamide]",> 25,–
"COc1ccc(Cl)cc1C(=O)Nc1ccc(-c2nc3ccccc3s2)cc1 [Compound 31, N-(4-Benzothiazol-2-yl-phenyl)-5-chloro-2-methoxy-benzamide]",10 to 25,–
"Cc1c(NC(=O)c2cc(-n3cnnc3)ccc2Cl)cccc1-c1nc2ccccc2s1 [Compound 125, N-(3-Benzothiazol-2-yl-2-methyl-phenyl)-2-chloro-5-[1,2,4]triazol-4-yl-benzamide]",–,> 25
"O=C(Nc1ccccc1-c1nc2ccccc2s1)c1cccc2c(Cl)cccc12 [Compound 109, 5-Chloro-naphthalene-1-carboxylic acid (2-benzothiazol-2-yl-phenyl)-amide]",> 25,–
"COc1ccc(C(=O)Nc2ccc(-c3nc4ccccc4s3)c(Cl)c2)cc1 [Compound 6, N-(4-Benzothiazol-2-yl-3-chloro-phenyl)-4-methoxy-benzamide]",< 1,–
"CC(=O)Nc1ccc(C(=O)Nc2ccc(-c3nc4ccc(C)cc4s3)cc2)cc1 [Compound 80, 4-Acetylamino-N-[4-(6-methyl-benzothiazol-2-yl)-phenyl]-benzamide]",> 25,–
"COc1ccc(C(=O)Nc2ccc(-c3nc4ccccc4s3)c(O)c2)cc1 [Compound 1, N-(4-Benzothiazol-2-yl-3-hydroxy-phenyl)-4-methoxy-benzamide]",< 1,–
"COc1ccc(C(=O)Nc2ccc(Cl)c(-c3nc4ccccc4s3)c2)cc1OC [Compound 32, N-(3-Benzothiazol-2-yl-4-chloro-phenyl)-3,4-dimethoxy-benzamide]",10 to 25,–
"O=C(Nc1ccccc1-c1nc2ccccc2s1)c1cccc(I)c1 [Compound 103, N-(2-Benzothiazol-2-yl-phenyl)-3-iodo-benzamide]",> 25,–
"CCN(CC)S(=O)(=O)c1ccc(C(=O)Nc2ccccc2-c2nc3ccccc3s2)cc1 [Compound 94, N-(2-Benzothiazol-2-yl-phenyl)-4-diethylsulfamoyl-benzamide]",> 25,–
"Cc1ccc2sc(-c3ccc(NC(=O)c4ccccc4Cl)cc3)nc2c1 [Compound 49, 2-Chloro-N-[4-(5-methyl-benzothiazol-2-yl)-phenyl]-benzamide]",–,> 25

Structure (SMILES),EC50 [1] [µM],"EC50 (Vero, 48 h) [µM]"
"Cc1cccc(C(=O)Nc2ccc(-c3nc4ccccc4s3)c(Cl)c2)c1 [Compound 39, N-(4-Benzothiazol-2-yl-3-chloro-phenyl)-3-methyl-benzamide]",10 to 25,–
"O=C(Nc1ccc(-c2nc3ccccc3s2)cc1)c1cccc(F)c1 [Compound 76, N-(4-Benzothiazol-2-yl-phenyl)-3-fluoro-benzamide]",> 25,–
"O=C(Nc1ccc(-c2nc3ccccc3s2)c(Cl)c1)c1cccc([N+](=O)[O-])c1 [Compound 120, N-(4-Benzothiazol-2-yl-3-chloro-phenyl)-3-nitro-benzamide]",> 25,–
"O=C(Nc1ccc(-c2nc3ccccc3s2)c(O)c1)c1ccccc1F [Compound 54, N-(4-Benzothiazol-2-yl-3-hydroxy-phenyl)-2-fluoro-benzamide]",> 25,–
"Cc1ccc2nc(-c3ccc(NC(=O)c4ccc(N(C)C)cc4)cc3)sc2c1 [Compound 7, 4-Dimethylamino-N-[4-(6-methyl-benzothiazol-2-yl)-phenyl]-benzamide]",< 1,–
"O=C(Nc1cccc(-c2nc3ccccc3s2)c1)c1ccc(N2CCCC2)c([N+](=O)[O-])c1 [Compound 96, N-(3-Benzothiazol-2-yl-phenyl)-3-nitro-4-pyrrolidin-1-yl-benzamide]",> 25,–
"Cc1ccccc1C(=O)Nc1cccc(-c2nc3ccccc3s2)c1 [Compound 92, N-(3-Benzothiazol-2-yl-phenyl)-2-methyl-benzamide]",> 25,–
"O=C(Nc1ccc(-c2nc3ccccc3s2)cc1)c1c(F)cccc1F [Compound 79, N-(4-Benzothiazol-2-yl-phenyl)-2,6-difluoro-benzamide]",> 25,–
"Cc1ccc2nc(-c3ccc(NC(=O)c4cccc(S(=O)(=O)N5CCN(C)CC5)c4)cc3)sc2c1 [Compound 9, N-[4-(6-Methyl-benzothiazol-2-yl)-phenyl]-3-(4-methyl-piperazine-1-sulfonyl)-benzamide]",< 1,–
"COc1cc(OC)cc(C(=O)Nc2ccc(Cl)c(-c3nc4ccccc4s3)c2)c1 [Compound 86, N-(3-Benzothiazol-2-yl-4-chloro-phenyl)-3,5-dimethoxy-benzamide]",> 25,–
"Cc1ccc(C(=O)Nc2ccccc2-c2nc3ccccc3s2)cc1C [Compound 99, N-(2-Benzothiazol-2-yl-phenyl)-3,4-dimethyl-benzamide]",> 25,–
"O=C(Nc1cccc(-c2nc3ccccc3s2)c1)c1ccc(F)cc1 [Compound 90, N-(3-Benzothiazol-2-yl-phenyl)-4-fluoro-benzamide]",> 25,–
"O=C(Nc1ccc(-c2nc3ccccc3s2)cc1)c1ccc2c(c1)OCCO2 [Compound 2, 2,3-Dihydro-benzo[1,4]dioxine-6-carboxylic acid (4-benzothiazol-2-yl-phenyl)-amide]",< 1,–
"O=C(Nc1ccccc1-c1nc2ccccc2s1)c1cccc(F)c1 [Compound 110, N-(2-Benzothiazol-2-yl-phenyl)-3-fluoro-benzamide]",> 25,–
"Cc1c(NC(=O)c2ccc([N+](=O)[O-])cc2)cccc1-c1nc2ccccc2s1 [Compound 65, N-(3-Benzothiazol-2-yl-2-methyl-phenyl)-4-nitro-benzamide]",> 25,–
"Cc1ccc(C(=O)O)c(C(=O)Nc2ccc(-c3nc4ccc(C)cc4s3)cc2)c1 [Compound 8, 4-Methyl-N-[4-(6-methyl-benzothiazol-2-yl)-phenyl]-phthalamic acid]",< 1,–
"O=C(Nc1ccc(-c2nc3ccccc3s2)c(O)c1)c1ccccc1 [Compound 59, N-(4-Benzothiazol-2-yl-3-hydroxy-phenyl)-benzamide]",> 25,–
"Cc1c(NC(=O)c2ccccc2F)cccc1-c1nc2ccccc2s1 [Compound 66, N-(3-Benzothiazol-2-yl-2-methyl-phenyl)-2-fluoro-benzamide]",> 25,–
"Cc1ccc(-c2nc3ccccc3s2)cc1NC(=O)c1ccccc1[N+](=O)O [Compound 68, N-(5-Benzothiazol-2-yl-2-methyl-phenyl)-2-nitro-benzamide]",> 25,–
"COc1ccccc1C(=O)Nc1ccc(-c2nc3ccccc3s2)c(Cl)c1 [Compound 11, N-(4-Benzothiazol-2-yl-3-chloro-phenyl)-2-methoxy-benzamide]",< 1,–
"COc1ccc(C(=O)Nc2ccccc2-c2nc3ccccc3s2)cc1OC [Compound 14, N-(2-Benzothiazol-2-yl-phenyl)-3,4-dimethoxy-benzamide]",1 to 10,–
"Cc1cccc(C(=O)Nc2cccc(-c3nc4ccccc4s3)c2)c1 [Compound 12, N-(3-Benzothiazol-2-yl-phenyl)-3-methyl-benzamide]",1 to 10,–
"O=C(Nc1ccc(-c2nc3ccccc3s2)cc1)c1ccccc1F [Compound 21, N-(4-Benzothiazol-2-yl-phenyl)-2-fluoro-benzamide]",10 to 25,–
